Test results reported in PubChem BioAssay (NCI).
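Exposure lasted 48 hours, with cells grown in 96-well plates and compounds tested at five concentrations. The concentration for full growth arrest is given as TGI.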

Tests used:
Experiment in all cases: NCI-60 cell line screen, 48 h
786-0 renal = test system: 786-0 renal
SK-MEL-2 melanoma = test system: SK-MEL-2 melanoma
NCI-H226 lung = test system: NCI-H226 lung
K-562 leukemia = test system: K-562 leukemia
SNB-75 CNS = test system: SNB-75 CNS
RXF 393 renal = test system: RXF 393 renal
HOP-62 NSCLC = test system: HOP-62 NSCLC
ACHN renal = test system: ACHN renal
NCI/ADR-RES ovarian = test system: NCI/ADR-RES ovarian
CAKI-1 renal = test system: CAKI-1 renal
RPMI-8226 leukemia = test system: RPMI-8226 leukemia
EKVX NSCLC = test system: EKVX NSCLC
CCRF-CEM leukemia = test system: CCRF-CEM leukemia
M14 melanoma = test system: M14 melanoma
MDA-N = test system: MDA-N
A498 renal = test system: A498 renal
KM12 colon = test system: KM12 colon
SW-620 colon = test system: SW-620 colon
DU-145 prostate = test system: DU-145 prostate
OVCAR-4 ovarian = test system: OVCAR-4 ovarian
A549 NSCLC = test system: A549 NSCLC
NCI-H460 lung = test system: NCI-H460 lung
PC-3 prostate = test system: PC-3 prostate
TK-10 renal = test system: TK-10 renal
HL-60(TB) leukemia = test system: HL-60(TB) leukemia
SK-MEL-28 melanoma = test system: SK-MEL-28 melanoma
BT-549 breast = test system: BT-549 breast
SNB-19 CNS = test system: SNB-19 CNS
SF-295 CNS = test system: SF-295 CNS
SF-539 CNS = test system: SF-539 CNS
COLO 205 colon = test system: COLO 205 colon
OVCAR-3 ovarian = test system: OVCAR-3 ovarian
HCC-2998 colon = test system: HCC-2998 colon
MDA-MB-435 = test system: MDA-MB-435
UACC-257 melanoma = test system: UACC-257 melanoma
SK-OV-3 ovarian = test system: SK-OV-3 ovarian
OVCAR-8 ovarian = test system: OVCAR-8 ovarian
NCI-H23 lung = test system: NCI-H23 lung
NCI-H522 lung = test system: NCI-H522 lung
T-47D breast = test system: T-47D breast
MCF7 breast = test system: MCF7 breast
UACC-62 melanoma = test system: UACC-62 melanoma
MOLT-4 leukemia = test system: MOLT-4 leukemia
MDA-MB-231 breast = test system: MDA-MB-231 breast
SK-MEL-5 melanoma = test system: SK-MEL-5 melanoma
UO-31 renal = test system: UO-31 renal
SN12C renal = test system: SN12C renal
HT29 colon = test system: HT29 colon
HOP-92 NSCLC = test system: HOP-92 NSCLC
LOX IMVI melanoma = test system: LOX IMVI melanoma
HCT-116 colon = test system: HCT-116 colon
MALME-3M melanoma = test system: MALME-3M melanoma
HCT-15 colon = test system: HCT-15 colon
OVCAR-5 ovarian = test system: OVCAR-5 ovarian
IGROV1 ovarian = test system: IGROV1 ovarian
U251 CNS = test system: U251 CNS
SF-268 CNS = test system: SF-268 CNS
SR leukemia = test system: SR leukemia

COc1cc(N(C)C)ccc1/C=c1/c2ccccc2n2c1cc(-c1ccccc1)[n+]2C
TGI (786-0 renal): 1.22 µM
TGI (SK-MEL-2 melanoma): 2.03 µM
TGI (NCI-H226 lung): 2.11 µM
TGI (K-562 leukemia): > 100 µM
TGI (SNB-75 CNS): 1.16 µM
TGI (RXF 393 renal): 1.37 µM
TGI (HOP-62 NSCLC): 1.03 µM
TGI (ACHN renal): 1.31 µM
TGI (NCI/ADR-RES ovarian): > 100 µM
TGI (CAKI-1 renal): 2.33 µM
TGI (RPMI-8226 leukemia): 1.3 µM
TGI (EKVX NSCLC): 2.21 µM
TGI (CCRF-CEM leukemia): 1.55 µM
TGI (M14 melanoma): 1.45 µM
TGI (MDA-N): 1.26 µM
TGI (A498 renal): 6.76 µM
TGI (KM12 colon): 0.418 µM
TGI (SW-620 colon): 2.02 µM
TGI (DU-145 prostate): 1.26 µM
TGI (OVCAR-4 ovarian): 2.02 µM
TGI (A549 NSCLC): 1.38 µM
TGI (NCI-H460 lung): 1.23 µM
TGI (PC-3 prostate): 1.1 µM
TGI (TK-10 renal): 1.83 µM
TGI (HL-60(TB) leukemia): 1.26 µM
TGI (SK-MEL-28 melanoma): 2.04 µM
TGI (BT-549 breast): 1.18 µM
TGI (SNB-19 CNS): 1.58 µM
TGI (SF-295 CNS): 1.49 µM
TGI (SF-539 CNS): 0.873 µM
TGI (COLO 205 colon): 0.37 µM
TGI (OVCAR-3 ovarian): 1.4 µM
TGI (HCC-2998 colon): 1.76 µM
TGI (MDA-MB-435): 1.32 µM
TGI (UACC-257 melanoma): 1.66 µM
TGI (SK-OV-3 ovarian): 1.44 µM

FC1CCN(C2(c3cccs3)CCCCC2)CC1
TGI (786-0 renal): > 100 µM
TGI (SK-MEL-2 melanoma): > 100 µM
TGI (NCI-H226 lung): > 100 µM
TGI (OVCAR-8 ovarian): > 100 µM
TGI (K-562 leukemia): > 100 µM
TGI (NCI-H23 lung): > 100 µM
TGI (SNB-75 CNS): > 100 µM
TGI (NCI-H522 lung): > 100 µM
TGI (RXF 393 renal): > 100 µM
TGI (T-47D breast): > 100 µM
TGI (HOP-62 NSCLC): > 100 µM
TGI (MCF7 breast): > 100 µM
TGI (ACHN renal): > 100 µM
TGI (NCI/ADR-RES ovarian): > 100 µM
TGI (UACC-62 melanoma): > 100 µM
TGI (MOLT-4 leukemia): > 100 µM
TGI (CAKI-1 renal): > 100 µM
TGI (RPMI-8226 leukemia): > 100 µM
TGI (EKVX NSCLC): > 100 µM
TGI (M14 melanoma): > 100 µM
TGI (MDA-MB-231 breast): > 100 µM
TGI (MDA-N): > 100 µM
TGI (SK-MEL-5 melanoma): > 100 µM
TGI (UO-31 renal): > 100 µM
TGI (A498 renal): > 100 µM
TGI (KM12 colon): > 100 µM
TGI (SN12C renal): > 100 µM
TGI (HT29 colon): > 100 µM
TGI (SW-620 colon): > 100 µM
TGI (DU-145 prostate): > 100 µM
TGI (OVCAR-4 ovarian): > 100 µM
TGI (A549 NSCLC): > 100 µM
TGI (NCI-H460 lung): > 100 µM
TGI (HOP-92 NSCLC): > 100 µM
TGI (LOX IMVI melanoma): > 100 µM
TGI (PC-3 prostate): > 100 µM
TGI (TK-10 renal): > 100 µM
TGI (HCT-116 colon): > 100 µM
TGI (HL-60(TB) leukemia): > 100 µM
TGI (SK-MEL-28 melanoma): > 100 µM
TGI (BT-549 breast): > 100 µM
TGI (SNB-19 CNS): > 100 µM
TGI (SF-295 CNS): > 100 µM
TGI (MALME-3M melanoma): > 100 µM
TGI (COLO 205 colon): > 100 µM
TGI (HCT-15 colon): > 100 µM
TGI (OVCAR-5 ovarian): > 100 µM
TGI (OVCAR-3 ovarian): > 100 µM
TGI (IGROV1 ovarian): > 100 µM
TGI (HCC-2998 colon): > 100 µM
TGI (MDA-MB-435): > 100 µM
TGI (UACC-257 melanoma): > 100 µM
TGI (U251 CNS): > 100 µM
TGI (SK-OV-3 ovarian): > 100 µM

O=C(/C=C/c1cccs1)c1ccsc1
TGI (786-0 renal): > 100 µM
TGI (SK-MEL-2 melanoma): > 100 µM
TGI (NCI-H226 lung): 48.5 µM
TGI (OVCAR-8 ovarian): 96.5 µM
TGI (K-562 leukemia): 89.8 µM
TGI (NCI-H23 lung): 57.6 µM
TGI (SNB-75 CNS): 89 µM
TGI (T-47D breast): 72 µM
TGI (HOP-62 NSCLC): > 100 µM
TGI (MCF7 breast): > 100 µM
TGI (ACHN renal): 42.6 µM
TGI (NCI/ADR-RES ovarian): > 100 µM
TGI (UACC-62 melanoma): 38.5 µM
TGI (MOLT-4 leukemia): 40.6 µM
TGI (CAKI-1 renal): > 100 µM
TGI (RPMI-8226 leukemia): 45.4 µM
TGI (EKVX NSCLC): > 100 µM
TGI (CCRF-CEM leukemia): 45.5 µM
TGI (M14 melanoma): > 100 µM
TGI (MDA-MB-231 breast): > 10 µM
TGI (MDA-N): 36.3 µM
TGI (SK-MEL-5 melanoma): 36 µM
TGI (UO-31 renal): 32.4 µM
TGI (SF-268 CNS): > 100 µM
TGI (A498 renal): > 100 µM
TGI (KM12 colon): > 10 µM
TGI (SN12C renal): 52.6 µM
TGI (HT29 colon): 41.7 µM
TGI (SW-620 colon): 75.2 µM
TGI (DU-145 prostate): > 100 µM
TGI (OVCAR-4 ovarian): > 100 µM
TGI (A549 NSCLC): > 100 µM
TGI (NCI-H460 lung): 60.4 µM
TGI (LOX IMVI melanoma): 35.1 µM
TGI (PC-3 prostate): 59.1 µM
TGI (TK-10 renal): 97.6 µM
TGI (HL-60(TB) leukemia): 42.1 µM
TGI (SK-MEL-28 melanoma): 81.7 µM
TGI (SNB-19 CNS): 50.8 µM
TGI (SF-295 CNS): > 100 µM
TGI (MALME-3M melanoma): 59 µM
TGI (COLO 205 colon): 38 µM
TGI (HCT-15 colon): 40.5 µM
TGI (OVCAR-5 ovarian): > 100 µM
TGI (IGROV1 ovarian): 73.6 µM
TGI (HCC-2998 colon): 34.9 µM
TGI (SR leukemia): 38.5 µM
TGI (MDA-MB-435): 39.8 µM
TGI (UACC-257 melanoma): 52.3 µM
TGI (U251 CNS): > 10 µM
TGI (SK-OV-3 ovarian): > 100 µM

CCOC(=O)N(CC)c1c(C(F)(F)F)cc(-c2ccccc2)[nH]c1=O
TGI (786-0 renal): > 100 µM
TGI (SK-MEL-2 melanoma): > 100 µM
TGI (NCI-H226 lung): > 100 µM
TGI (OVCAR-8 ovarian): > 100 µM
TGI (K-562 leukemia): > 100 µM
TGI (NCI-H23 lung): > 100 µM
TGI (RXF 393 renal): > 100 µM
TGI (T-47D breast): > 100 µM
TGI (HOP-62 NSCLC): > 100 µM
TGI (MCF7 breast): > 100 µM
TGI (ACHN renal): > 100 µM
TGI (NCI/ADR-RES ovarian): > 100 µM
TGI (UACC-62 melanoma): > 100 µM
TGI (MOLT-4 leukemia): 70.1 µM
TGI (CAKI-1 renal): > 100 µM
TGI (RPMI-8226 leukemia): 39.3 µM
TGI (EKVX NSCLC): 95.1 µM
TGI (CCRF-CEM leukemia): 63.8 µM
TGI (M14 melanoma): > 100 µM
TGI (MDA-MB-231 breast): > 100 µM
TGI (MDA-N): 53.9 µM
TGI (SK-MEL-5 melanoma): > 100 µM
TGI (UO-31 renal): > 100 µM
TGI (A498 renal): > 100 µM
TGI (KM12 colon): > 100 µM
TGI (SN12C renal): > 100 µM
TGI (HT29 colon): > 100 µM
TGI (SW-620 colon): > 100 µM
TGI (DU-145 prostate): > 100 µM
TGI (OVCAR-4 ovarian): 94.8 µM
TGI (A549 NSCLC): > 100 µM
TGI (NCI-H460 lung): > 100 µM
TGI (HOP-92 NSCLC): > 100 µM
TGI (LOX IMVI melanoma): > 100 µM
TGI (PC-3 prostate): > 100 µM
TGI (TK-10 renal): > 100 µM
TGI (HCT-116 colon): > 100 µM
TGI (HL-60(TB) leukemia): 30 µM
TGI (SK-MEL-28 melanoma): > 100 µM
TGI (BT-549 breast): > 100 µM
TGI (SNB-19 CNS): > 100 µM
TGI (SF-295 CNS): > 100 µM
TGI (COLO 205 colon): > 100 µM
TGI (HCT-15 colon): > 100 µM
TGI (OVCAR-5 ovarian): > 100 µM
TGI (OVCAR-3 ovarian): > 100 µM
TGI (IGROV1 ovarian): > 100 µM
TGI (HCC-2998 colon): > 100 µM
TGI (MDA-MB-435): 56.7 µM
TGI (UACC-257 melanoma): > 100 µM
TGI (U251 CNS): > 100 µM
TGI (SK-OV-3 ovarian): > 100 µM
